Laboratory results reported in ChEMBL document CHEMBL1201862, “PubChem BioAssay data set” (2004).
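Results reflect a 48-hour exposure of cells in 96-well plates to compound at five concentrations. Abbreviation: GI50, concentration required for 50% inhibition of growth.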 The source made the active and inactive calls. Cut-off read from the data, not from the text of the source: active = GI50 up to about 1.1 µM and inactive = higher.

Assays:
Test in all cases: DTP human tumour cell line panel, 48 h
786-0 = test system: 786-0
A498 = test system: A498
A549 = test system: A549
ACHN = test system: ACHN
BT-549 = test system: BT-549
CAKI-1 = test system: CAKI-1
CCRF-CEM = test system: CCRF-CEM
COLO 205 = test system: COLO 205
DU-145 = test system: DU-145
EKVX = test system: EKVX
HCC 2998 = test system: HCC 2998
HCT-116 = test system: HCT-116
HCT-15 = test system: HCT-15
HL-60 = test system: HL-60
HOP-62 = test system: HOP-62
HOP-92 = test system: HOP-92
HT-29 = test system: HT-29
Hs-578T = test system: Hs-578T
IGROV-1 = test system: IGROV-1
K562 = test system: K562
KM12 = test system: KM12
LOX IMVI = test system: LOX IMVI
M14 = test system: M14
MCF7 = test system: MCF7
MDA-MB-231 = test system: MDA-MB-231
MDA-MB-435 = test system: MDA-MB-435
MOLT-4 = test system: MOLT-4
NCI-H226 = test system: NCI-H226
NCI-H23 = test system: NCI-H23
NCI-H460 = test system: NCI-H460
NCI-H522 = test system: NCI-H522
NCI/ADR-RES = test system: NCI/ADR-RES
OVCAR-3 = test system: OVCAR-3
OVCAR-4 = test system: OVCAR-4
OVCAR-5 = test system: OVCAR-5
OVCAR-8 = test system: OVCAR-8
PC-3 = test system: PC-3
RPMI-8226 = test system: RPMI-8226
RXF 393 = test system: RXF 393
SF-268 = test system: SF-268
SF-295 = test system: SF-295
SF-539 = test system: SF-539
SK-MEL-28 = test system: SK-MEL-28
SK-MEL-2 = test system: SK-MEL-2
SK-MEL-5 = test system: SK-MEL-5
SK-OV-3 = test system: SK-OV-3
SN12C = test system: SN12C
SNB-19 = test system: SNB-19
SNB-75 = test system: SNB-75
SR = test system: SR
SW-620 = test system: SW-620
T47D = test system: T47D
TK-10 = test system: TK-10
U-251 = test system: U-251
UACC-257 = test system: UACC-257
UACC-62 = test system: UACC-62
UO-31 = test system: UO-31
MDA-N = test system: MDA-N
Malme-3M = test system: Malme-3M

`ClCCc1ccccc1CC1=NCCc2ccccc21` was tested, and the GI50 (786-0) was 42.6 µM (inactive), the GI50 (A498) was 37.6 µM (inactive) and the GI50 (A549) was 33.2 µM (inactive). For the same compound, the GI50 (ACHN) was 30.8 µM (inactive), the GI50 (BT-549) was 30.3 µM (inactive) and the GI50 (CAKI-1) was 33 µM (inactive). For the same compound, the GI50 (CCRF-CEM) was 39.9 µM (inactive), the GI50 (COLO 205) was 24 µM (inactive) and the GI50 (DU-145) was > 100 µM (inactive). The GI50 (EKVX) was 22.1 µM (inactive), the GI50 (HCC 2998) was 25.1 µM (inactive) and the GI50 (HCT-116) was 32.5 µM (inactive). For the same compound, the GI50 (HCT-15) was 33 µM, the GI50 (HL-60) was 31.3 µM (inactive) and the GI50 (HOP-62) was 34.8 µM (inactive). For the same compound, the GI50 (HOP-92) was 28.1 µM (inactive), the GI50 (HT-29) was 17.4 µM (inactive) and the GI50 (Hs-578T) was 28.5 µM (inactive). The GI50 (IGROV-1) was 32 µM (inactive), the GI50 (K562) was 28.4 µM (inactive) and the GI50 (KM12) was 29.3 µM (inactive). For the same compound, the GI50 (LOX IMVI) was 76.7 µM (inactive), the GI50 (M14) was 24.5 µM (inactive) and the GI50 (MCF7) was 27.7 µM (inactive). For the same compound, the GI50 (MDA-MB-231) was 38.1 µM (inactive), the GI50 (MDA-MB-435) was 28.8 µM (inactive) and the GI50 (MOLT-4) was 26.9 µM (inactive). The GI50 (NCI-H226) was 22.5 µM (inactive), the GI50 (NCI-H23) was 21.5 µM (inactive) and the GI50 (NCI-H460) was 25.8 µM (inactive). The GI50 (NCI-H522) was 16.7 µM (inactive), the GI50 (NCI/ADR-RES) was 21.9 µM (inactive) and the GI50 (OVCAR-3) was 28.8 µM (inactive). For the same compound, the GI50 (OVCAR-4) was 43.5 µM (inactive), the GI50 (OVCAR-5) was 40.6 µM (inactive) and the GI50 (OVCAR-8) was 28.4 µM (inactive). For the same compound, the GI50 (PC-3) was 30.5 µM (inactive), the GI50 (RPMI-8226) was 16.3 µM (inactive) and the GI50 (RXF 393) was 21.7 µM (inactive). The GI50 (SF-268) was 29 µM (inactive), the GI50 (SF-295) was 39.3 µM (inactive) and the GI50 (SF-539) was 38.8 µM (inactive). The GI50 (SK-MEL-28) was 47.6 µM (inactive), the GI50 (SK-MEL-2) was 18.5 µM (inactive) and the GI50 (SK-MEL-5) was 22.8 µM (inactive). For the same compound, the GI50 (SK-OV-3) was 44.7 µM (inactive), the GI50 (SN12C) was 40.7 µM (inactive) and the GI50 (SNB-19) was 18.1 µM (inactive). The GI50 (SNB-75) was 22 µM (inactive), the GI50 (SR) was > 100 µM (inactive) and the GI50 (SW-620) was 29.9 µM (inactive). For the same compound, the GI50 (T47D) was 21.9 µM (inactive), the GI50 (TK-10) was 41.7 µM (inactive) and the GI50 (U-251) was 31.8 µM (inactive). For the same compound, the GI50 (UACC-257) was 34 µM (inactive), the GI50 (UACC-62) was 28.6 µM (inactive) and the GI50 (UO-31) was 14.4 µM (inactive).

`O=C(O)Cc1ccc(N2N=C(c3ccccc3)CC2=O)cc1` was tested, and the GI50 (A498) was > 100 µM (inactive), the GI50 (ACHN) was > 100 µM (inactive) and the GI50 (BT-549) was > 100 µM (inactive). The GI50 (CAKI-1) was > 100 µM (inactive), the GI50 (CCRF-CEM) was > 100 µM (inactive) and the GI50 (COLO 205) was > 100 µM (inactive). The GI50 (DU-145) was > 100 µM (inactive), the GI50 (EKVX) was > 100 µM (inactive) and the GI50 (HCC 2998) was > 100 µM (inactive). For the same compound, the GI50 (HCT-116) was > 100 µM (inactive), the GI50 (HCT-15) was greater than 100 µM and the GI50 (HL-60) was > 100 µM (inactive). For the same compound, the GI50 (HOP-62) was > 100 µM (inactive), the GI50 (HT-29) was > 100 µM (inactive) and the GI50 (Hs-578T) was > 100 µM (inactive). The GI50 (IGROV-1) was > 100 µM (inactive), the GI50 (K562) was > 100 µM (inactive) and the GI50 (KM12) was > 100 µM (inactive). For the same compound, the GI50 (M14) was > 100 µM (inactive), the GI50 (MCF7) was > 100 µM (inactive) and the GI50 (MDA-MB-231) was > 100 µM (inactive). The GI50 (MDA-N) was > 100 µM (inactive), the GI50 (MOLT-4) was > 100 µM (inactive) and the GI50 (Malme-3M) was 18.6 µM (inactive). For the same compound, the GI50 (NCI-H226) was > 100 µM (inactive), the GI50 (NCI-H23) was > 100 µM (inactive) and the GI50 (NCI-H460) was > 100 µM (inactive). The GI50 (NCI-H522) was > 100 µM (inactive), the GI50 (NCI/ADR-RES) was > 100 µM (inactive) and the GI50 (OVCAR-3) was > 100 µM (inactive). The GI50 (OVCAR-4) was > 100 µM (inactive), the GI50 (OVCAR-5) was > 100 µM (inactive) and the GI50 (OVCAR-8) was > 100 µM (inactive). The GI50 (PC-3) was > 100 µM (inactive), the GI50 (SF-268) was > 100 µM (inactive) and the GI50 (SF-295) was > 100 µM (inactive). For the same compound, the GI50 (SK-MEL-28) was > 100 µM (inactive), the GI50 (SK-MEL-2) was 23.2 µM (inactive) and the GI50 (SK-MEL-5) was > 100 µM (inactive). The GI50 (SK-OV-3) was > 100 µM (inactive), the GI50 (SN12C) was > 100 µM (inactive) and the GI50 (SNB-19) was > 100 µM (inactive). For the same compound, the GI50 (SNB-75) was > 100 µM (inactive), the GI50 (SR) was > 100 µM (inactive) and the GI50 (SW-620) was > 100 µM (inactive). The GI50 (T47D) was > 100 µM (inactive), the GI50 (TK-10) was > 100 µM (inactive) and the GI50 (U-251) was > 100 µM (inactive). For the same compound, the GI50 (UACC-257) was > 100 µM (inactive), the GI50 (UACC-62) was > 100 µM (inactive) and the GI50 (UO-31) was > 100 µM (inactive).

`NC(Cc1n[nH]c2ccccc12)C(=O)O` (stereo unspecified) was tested, and the GI50 (786-0) was > 100 µM (inactive), the GI50 (A498) was > 100 µM (inactive) and the GI50 (A549) was > 100 µM (inactive). For the same compound, the GI50 (ACHN) was > 100 µM (inactive), the GI50 (BT-549) was > 100 µM (inactive) and the GI50 (CAKI-1) was > 100 µM (inactive). For the same compound, the GI50 (CCRF-CEM) was > 100 µM (inactive), the GI50 (COLO 205) was > 100 µM (inactive) and the GI50 (DU-145) was > 100 µM (inactive). The GI50 (EKVX) was > 100 µM (inactive), the GI50 (HCC 2998) was > 100 µM (inactive) and the GI50 (HCT-116) was > 100 µM (inactive). For the same compound, the GI50 (HCT-15) was greater than 100 µM, the GI50 (HL-60) was > 100 µM (inactive) and the GI50 (HOP-62) was > 100 µM (inactive). The GI50 (HOP-92) was > 100 µM (inactive), the GI50 (HT-29) was > 100 µM (inactive) and the GI50 (Hs-578T) was > 100 µM (inactive). For the same compound, the GI50 (IGROV-1) was > 100 µM (inactive), the GI50 (K562) was > 100 µM (inactive) and the GI50 (KM12) was > 100 µM (inactive). The GI50 (LOX IMVI) was > 100 µM (inactive), the GI50 (M14) was > 100 µM (inactive) and the GI50 (MCF7) was > 100 µM (inactive). The GI50 (MDA-MB-231) was > 100 µM (inactive), the GI50 (MDA-MB-435) was > 100 µM (inactive) and the GI50 (MOLT-4) was > 100 µM (inactive). For the same compound, the GI50 (Malme-3M) was > 100 µM (inactive), the GI50 (NCI-H226) was > 100 µM (inactive) and the GI50 (NCI-H23) was > 100 µM (inactive). For the same compound, the GI50 (NCI-H460) was > 100 µM (inactive), the GI50 (NCI-H522) was > 100 µM (inactive) and the GI50 (NCI/ADR-RES) was > 100 µM (inactive). The GI50 (OVCAR-3) was > 100 µM (inactive), the GI50 (OVCAR-4) was > 100 µM (inactive) and the GI50 (OVCAR-5) was > 100 µM (inactive). For the same compound, the GI50 (OVCAR-8) was > 100 µM (inactive), the GI50 (PC-3) was > 100 µM (inactive) and the GI50 (RPMI-8226) was > 100 µM (inactive). For the same compound, the GI50 (RXF 393) was > 100 µM (inactive), the GI50 (SF-268) was > 100 µM (inactive) and the GI50 (SF-295) was > 100 µM (inactive). For the same compound, the GI50 (SF-539) was > 100 µM (inactive), the GI50 (SK-MEL-28) was > 100 µM (inactive) and the GI50 (SK-MEL-2) was 0.104 µM (active). The GI50 (SK-MEL-5) was > 100 µM (inactive), the GI50 (SK-OV-3) was > 100 µM (inactive) and the GI50 (SN12C) was > 100 µM (inactive). The GI50 (SNB-19) was > 100 µM (inactive), the GI50 (SNB-75) was > 100 µM (inactive) and the GI50 (SR) was > 100 µM (inactive). For the same compound, the GI50 (SW-620) was > 100 µM (inactive), the GI50 (T47D) was > 100 µM (inactive) and the GI50 (TK-10) was > 100 µM (inactive). The GI50 (U-251) was > 100 µM (inactive), the GI50 (UACC-257) was > 100 µM (inactive) and the GI50 (UACC-62) was > 100 µM (inactive). The GI50 (UO-31) was > 100 µM (inactive).
